Key:
serotonin [1] = test: Antagonistic activity on the effects of serotonin in the gastric lesion test (lesions induced by compound 48/80); type: in vivo, rat (male, Wistar inbred strain); settings: Rattus norvegicus, po, 4 h; read-out: gastric lesion test ED50 (distension of the stomach and lesions in the glandular area completely absent in 50% of rats)
Source text: The compounds of formula (I) and the pharmaceutically acceptable acid addition salts thereof are also potent serotonin-antagonists. The potency of the subject compounds as serotonin-antagonists is clearly evidenced by the results obtained in the following tests wherein the antagonistic activity of the subject compounds on the effect of serotonin is examined.
Antagonistic activity on the effects of serotonin in the gastric lesion test
Comound 48/80 (a mixture of oligomers obtained by condensation of 4-methoxy-N-methylbenzeneethanamine and formaldehyde) is a potent releaser of vasoactive amines from endogenous stores such as, for example, histamine and serotonin. […] The shock, followed by dead, can be avoided if the rats are pretreated with a classical H 1 antagonist.
Male rats of a Wistar inbred strain, weighing 220-250 g, were starved overnight, water being available ad libitum. The test compounds were administered orally as a solution or as a suspension in aqueous medium. A control rat and a "blank" rat received the test compound. One hour later 5-[4-(diphenylmethyl)-1-piperazinylmethyl]-1-methyl-1H-benzimidazole-2-methanol was administered subcutaneously to all rats at the dose of 2.5 mg/kg.
Four hours after the intravenous injection of compound 48/80, the rats were decapitated and the stomachs were removed. Subsequently the stomachs ere inspected for distension and contents (blood, fluid, food) and thoroughly rinsed. The macroscopic lesions were scored from 0 to +++, 0 corresponding to complete absence of visible lesions and the highest score corresponding to reddish rough patches covering more than half the glandular area.

[2] = test system: compound 48/80-induced lethality; test: Protection of rats from compound 48/80-induced lethality; type: in vivo, rat (male, inbred Wistar strain); settings: Rattus norvegicus, 4 h, read-out: Compound 48/80 lethality test in rats-ED50
Procedure: Protection of rats from compound 48/80-induced lethality
The protection from compound 48/80-induced lethal circulatory collapse appears to be a simple way of evaluating quantitatively the antihistaminic activity of test compounds. Male rats of an inbred Wistar strain, weighing 240-260 g were used in the experiment. After overnight starvation the rats were transferred to conditioned laboratories (temp.=21±1° C., relative humidity=65±5%).
The rats were treated subcutaneously or orally with a test compound or with the solvent (NaCl solution, 0.9%). […] Survival after 4 hours is therefore considered to be a safe criterion of a protective effect of drug administration.
The ED50 -values of the compounds of formula (I) are listed in the first column of table 1. Said ED50 -values are the values in mg/kg body weight at which the tested compounds protect 50% of the tested animals against compound 48/80-induced lethality.

serotonin [3] = settings: known serotonin-antagonists, rats treated with compound 48/80; cited from earlier work

Row | SMILES | ED50 (serotonin [1]) [mg/kg] | ED50 [2] [mg/kg] | prevention of cyanosis of ears and extremities, lesions in the glandular area of the stomach and abnormal gastric distension (serotonin [3])
1 | Fc1ccc(Cn2c(NC3CCN(CCc4cn5ccsc5n4)CC3)nc3ccccc32)cc1 [Compound 149, 1-[(4-fluorophenyl)methyl]-N-[1-[2-(imidazo[2,1-b]thiazol-6-yl)ethyl]-4-piperidinyl]-1H-benzimidazol-2-amine] | 0.08 | 0.08 | –
2 | Fc1ccc(Cn2c(NC3CCN(CCc4cn5ccccc5n4)CC3)nc3ccccc32)cc1 [Compound 150, 1-[(4-fluorophenyl)methyl]-N-[1-[2-(imidazo[1,2-a]pyridin-2-yl)ethyl]-4-piperidinyl]-1H-benzimidazol-2-amine] | 0.63 | 0.08 | –
3 | Cl.Cl.Cl.Fc1ccc(Cn2c(NC3CCN(Cc4cn5c(n4)CNCC5)CC3)nc3ccccc32)cc1 [Compound 152, 1-[(4-fluorophenyl)methyl]-N-[1-[(5,6,7,8-tetrahydroimidazo[1,2-a]pyrazin-2-yl)methyl]-4-piperidinyl]-1H-benzimidazol-2-amine trihydrochloride] | 0.63 | 0.08 | –
4 | CN(C)CCCSc1ccccc1NC(=O)/C=C/c1ccccc1 [cinanserin] | – | – | prevent completely
5 | CN1CCC(=C2c3ccccc3C=Cc3ccccc32)CC1 [cyproheptadine] | – | – | prevent completely
6 | CN1C[C@H](CNC(=O)OCc2ccccc2)C[C@@H]2c3cccc4c3c(cn4C)C[C@H]21 [metergoline] | – | – | prevent completely
7 | CC[C@@H](CO)NC(=O)[C@@H]1C=C2c3cccc4c3c(cn4C)C[C@H]2N(C)C1 [methysergide] | – | – | prevent completely
8 | CN1CCN2c3ccccc3Cc3ccccc3C2C1 (centres unmarked) [mianserin] | – | – | prevent completely
9 | NC(=O)C1(N2CCCCC2)CCN(CCCC(=O)c2ccc(F)cc2)CC1 [pipamperone] | – | – | prevent completely
10 | CN1CCC(=C2c3ccccc3CCc3sccc32)CC1 [pizotifen] | – | – | prevent completely
11 | O=C(CCCN1CCC2(CC1)C(=O)NCN2c1ccccc1)c1ccc(F)cc1 [spiperone] | – | – | prevent completely
